Measurements taken from patent US11708367B2, “Compounds for the treatment of kinase-dependent disorders” (Exelixis, Inc., priority 2018, dated 2023).

Columns and labels:
[1] = target: Human Axl (Homo sapiens (Human), UniProt P30530, Q764R); test: Human AXL kinase assay (33P radiometric, KinaseProfiler); format: biochemical; settings: 10 μM ATP
Protocol: (§1) Kinase activity and compound inhibition were investigated using the ^33P-Phosphoryl transfer radiometric kinase assay, performed using the KinaseProfiler™ service of Eurofins Pharma Discovery Services UK Limited. Dose-response experiments were performed using nine compound concentrations in a 96-well microtiter plate. For each assay, all compounds were prepared to a 50× final assay concentration (50 μM) in 100% DMSO, then diluted in a half-log series, with the final top concentration at 1 μM. This working stock of the compound was added to the assay well as the first component in the reaction, followed by the remaining components as detailed in the following assay protocols below. The positive control wells (100% kinase activity) contain all components of the reaction including 2% DMSO (control for solvent effects), except the compound of interest. Blank wells contain all components of the reaction, with the reference inhibitor, staurosporine. This reference compound was used to abolish kinase activity and generated the 0% kinase activity base-line. IC50 values were calculated by nonlinear regression analysis using the sigmoidal dose-response (variable slope) curve fit on XLFit version 5.3 (ID Business Solutions).
Human Axl (residues H473-A894 with Q764R, 161 nM) was incubated with 8 mM MOPS pH 7.0, 0.2 mM EDTA, 250 μM KKSRGDYMTMQIG (SEQ ID NO. 43), 10 mM magnesium acetate and 10 μM [γ-33P-ATP]. The reaction was initiated by the addition of the Mg/ATP mix. After incubation for 40 minutes at room temperature, the reaction was stopped by the addition of phosphoric acid to a concentration of 0.5%. A reaction aliquot of 10 μL was then spotted onto a P30 filtermat and washed four times for 4 minutes in 0.425% phosphoric acid and once in methanol prior to drying and scintillation counting. Incorporated ^33P was measured using the Wallac Microbeta scintillation counter (Perkin Elmer).

[2] = target: Mer (Homo sapiens (Human), UniProt Q12866); test: Human Mer kinase assay (33P radiometric, KinaseProfiler); format: biochemical; settings: 10 μM ATP
Protocol: as §1
Human Mer (residues R557-E882 with H628Q and R794A, 0.7 nM) was incubated with 8 mM MOPS pH 7.0, 0.2 mM EDTA, 30 mM NaCl, 250 μM GGMEDIYFEFMGGKKK (SEQ ID NO. 44), 10 mM magnesium acetate, and 10 μM [γ-33P-ATP]. The reaction was initiated by the addition of the Mg/ATP mix. After incubation for 40 minutes at room temperature, the reaction was stopped by the addition of phosphoric acid to a concentration of 0.5%. A reaction aliquot of 10 μL was then spotted onto a P30 filtermat and washed four times for 4 minutes in 0.425% phosphoric acid and once in methanol prior to drying and scintillation counting. Incorporated 33P was measured using the Wallac Microbeta scintillation counter (Perkin Elmer).

[3] = target: T1, Met (Homo sapiens (Human), UniProt P08581); test: Human Met kinase assay (33P radiometric, KinaseProfiler); format: biochemical; settings: 10 μM ATP, read-out: c-Met IC50
Protocol: as §1
Human Met (residues R974-S1390 with A1209G and V1290L, 3.4 nM) was incubated with 8 mM MOPS pH 7.0, 0.2 mM EDTA, 250 µM KKKGQEEEYVFIE (SEQ ID NO. 45), 1 mM sodium orthovanadate, 5 mM […], 10 mM magnesium acetate, and 10 μM [γ-33P-ATP]. The reaction was initiated by the addition of the Mg/ATP mix. After incubation for 40 minutes at room temperature, the reaction was stopped by the addition of phosphoric acid to a concentration of 0.5%. A reaction aliquot of 10 μL was then spotted onto a P30 filtermat and washed four times for 4 minutes in 0.425% phosphoric acid and once in methanol prior to drying and scintillation counting. Incorporated 33P was measured using the Wallac Microbeta scintillation counter (Perkin Elmer).

[4] = target: T1, Met; test: Met autophosphorylation ELISA in PC-3 cells; format: cell-based; settings: cellular, HGF-stimulated, phospho-Met ELISA, read-out: c-Met IC50
Method in brief: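 Serum-starved PC-3 cells treated 1 h with compound (8-point series, 0.3% DMSO), then stimulated 10 min with 100 ng/mL HGF. Phospho-Met (panTyr) quantified in lysates by sandwich ELISA; IC50 from 4-parameter logistic fit against DMSO and reference-inhibitor controls.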
Target sequence in this assay (P08581 25-1390): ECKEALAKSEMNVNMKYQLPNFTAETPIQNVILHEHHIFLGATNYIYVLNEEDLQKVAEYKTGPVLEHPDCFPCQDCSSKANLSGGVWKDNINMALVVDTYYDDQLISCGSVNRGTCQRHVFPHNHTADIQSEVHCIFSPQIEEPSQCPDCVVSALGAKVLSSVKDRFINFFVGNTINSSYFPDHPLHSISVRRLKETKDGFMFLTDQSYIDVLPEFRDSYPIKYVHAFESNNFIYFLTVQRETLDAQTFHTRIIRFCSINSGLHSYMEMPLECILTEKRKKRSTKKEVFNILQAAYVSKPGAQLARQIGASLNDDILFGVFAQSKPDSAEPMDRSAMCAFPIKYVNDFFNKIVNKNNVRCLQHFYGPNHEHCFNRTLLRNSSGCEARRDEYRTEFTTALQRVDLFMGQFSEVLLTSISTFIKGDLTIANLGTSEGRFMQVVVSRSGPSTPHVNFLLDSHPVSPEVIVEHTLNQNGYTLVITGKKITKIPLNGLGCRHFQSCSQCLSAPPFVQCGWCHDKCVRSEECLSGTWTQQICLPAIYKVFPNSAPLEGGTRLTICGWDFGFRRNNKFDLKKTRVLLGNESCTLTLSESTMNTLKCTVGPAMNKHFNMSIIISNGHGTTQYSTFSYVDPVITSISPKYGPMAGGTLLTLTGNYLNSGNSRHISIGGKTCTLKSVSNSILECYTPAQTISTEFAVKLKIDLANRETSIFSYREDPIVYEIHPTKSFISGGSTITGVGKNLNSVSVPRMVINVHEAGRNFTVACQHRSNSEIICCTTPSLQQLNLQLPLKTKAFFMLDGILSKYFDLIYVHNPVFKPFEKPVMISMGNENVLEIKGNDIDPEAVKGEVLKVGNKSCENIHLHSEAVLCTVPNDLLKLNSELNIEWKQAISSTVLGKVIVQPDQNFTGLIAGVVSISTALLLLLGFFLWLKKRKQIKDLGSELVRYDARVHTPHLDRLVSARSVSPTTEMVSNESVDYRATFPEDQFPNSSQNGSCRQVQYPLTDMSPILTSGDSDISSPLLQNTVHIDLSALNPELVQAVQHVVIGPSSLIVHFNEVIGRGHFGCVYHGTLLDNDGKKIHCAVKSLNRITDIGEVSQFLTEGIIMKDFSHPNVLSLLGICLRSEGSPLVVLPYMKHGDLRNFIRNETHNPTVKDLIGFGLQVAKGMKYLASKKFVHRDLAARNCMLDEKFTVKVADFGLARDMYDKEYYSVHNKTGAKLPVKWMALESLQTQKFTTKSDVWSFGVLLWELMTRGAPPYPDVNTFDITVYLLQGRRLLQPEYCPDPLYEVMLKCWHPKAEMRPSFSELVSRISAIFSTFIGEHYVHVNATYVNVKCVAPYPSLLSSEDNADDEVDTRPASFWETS

Chain of Mer (Q12866 557-882): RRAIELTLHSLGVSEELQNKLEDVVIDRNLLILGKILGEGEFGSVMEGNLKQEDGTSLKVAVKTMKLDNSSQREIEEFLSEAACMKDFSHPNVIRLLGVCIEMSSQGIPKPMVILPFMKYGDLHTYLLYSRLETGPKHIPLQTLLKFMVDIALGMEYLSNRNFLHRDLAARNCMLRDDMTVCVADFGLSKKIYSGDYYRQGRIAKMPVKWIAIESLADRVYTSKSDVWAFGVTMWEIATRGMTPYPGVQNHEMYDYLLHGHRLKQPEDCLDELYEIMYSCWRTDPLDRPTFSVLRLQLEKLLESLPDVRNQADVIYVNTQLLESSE
Chain of Human Axl (P30530 473-894 Q764R): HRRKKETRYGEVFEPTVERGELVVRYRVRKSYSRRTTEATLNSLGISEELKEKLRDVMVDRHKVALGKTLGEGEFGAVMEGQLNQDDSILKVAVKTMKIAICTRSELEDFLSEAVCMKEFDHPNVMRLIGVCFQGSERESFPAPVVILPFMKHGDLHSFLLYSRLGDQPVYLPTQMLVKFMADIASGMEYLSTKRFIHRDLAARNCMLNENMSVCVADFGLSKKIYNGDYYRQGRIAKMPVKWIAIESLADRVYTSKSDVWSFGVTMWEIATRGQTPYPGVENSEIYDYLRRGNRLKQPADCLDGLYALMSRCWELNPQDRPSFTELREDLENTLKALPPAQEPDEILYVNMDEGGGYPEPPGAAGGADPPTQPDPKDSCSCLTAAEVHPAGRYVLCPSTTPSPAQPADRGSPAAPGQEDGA

| IC50 [1] | IC50 [2] | IC50 [3] | IC50 [4] | SMILES |
| --- | --- | --- | --- | --- |
| ≤ 10 nM | ≤ 10 nM | 10 to 100 nM | 100 to 300 nM | COc1cc2ncnc(Oc3ccc(NC(=O)C4(C(=O)Nc5ccc(F)cc5)CC4)cc3)c2nc1OC [Compound 28, 1-N-[4-(6,7-dimethoxy-pyrido[3,2-d]pyrimidin-4-yl)oxyphenyl]-1-N′-(4-fluorophenyl)cyclo-propane-1,1-dicarboxamide] |
| 10 to 100 nM | ≤ 10 nM | ≤ 10 nM | 10 to 100 nM | COc1cc2ncnc(Oc3ccc(NC(=O)C4(C(=O)Nc5ccc(F)cc5)CC4)cc3Cl)c2nc1OC [Compound 29, 1-N′-[3-chloro-4-(6,7-dimethoxypyrido[3,2-d]pyrimidin-4-yl)oxyphenyl]-1-N-(4-fluorophenyl)cyclo-propane-1,1-dicarboxamide] |
| ≤ 10 nM | ≤ 10 nM | ≤ 10 nM | 10 to 100 nM | COc1cc2ncnc(Oc3ccc(NC(=O)C4(C(=O)Nc5ccc(F)cc5)CC4)cc3F)c2nc1OC [Compound 30, 1-N′-[4-(6,7-dimethoxypyrido[3,2-d]pyrimidin-4-yl)oxy-3-fluorophenyl]-1-N-(4-fluorophenyl)cyclopropane-1,1-dicarboxamide] |
| 10 to 100 nM | ≤ 10 nM | 10 to 100 nM | 10 to 100 nM | COc1nc2c(Oc3ccc(NC(=O)C4(C(=O)Nc5ccc(F)cc5)CC4)cc3)ncnc2cc1OCCCN1CCOCC1 [Compound 65, 1-N′-(4-fluorophenyl)-1-N-[4-[6-methoxy-7-(3-morpholin-4-ylpropoxy)pyrido[3,2-d]pyrimidin-4-yl]oxyphenyl]cyclopropane-1,1-dicarboxamide] |
| ≤ 10 nM | ≤ 10 nM | ≤ 10 nM | 10 to 100 nM | COc1nc2c(Oc3ccc(NC(=O)C4(C(=O)Nc5ccc(F)cc5)CC4)cc3Cl)ncnc2cc1OCCCN1CCOCC1 [Compound 66, 1-N′-[3-chloro-4-[6-methoxy-7-(3-morpholin-4-ylpropoxy)pyrido[3,2-d]pyrimidin-4-yl]oxyphenyl]-1-N-(4-fluorophenyl)cyclo-propane-1,1-dicarboxamide] |
| ≤ 10 nM | ≤ 10 nM | ≤ 10 nM | 10 to 100 nM | COc1nc2c(Oc3ccc(NC(=O)C4(C(=O)Nc5ccc(F)cc5)CC4)cc3F)ncnc2cc1OCCCN1CCOCC1 [Compound 67, 1-N′-[3-fluoro-4-[6-methoxy-7-(3-morpholin-4-ylpropoxy)pyrido[3,2-d]pyrimidin-4-yl]oxyphenyl]-1-N-(4-fluorophenyl)cyclo-propane-1,1-dicarboxamide] |
| 100 to 1000 nM | 10 to 100 nM | 100 to 1000 nM | > 300 nM | COc1cc2c(Oc3ccc(NC(=O)C4(C(=O)Nc5ccc(F)cc5)CC4)cc3)ncnc2cn1 [Compound 91, 1-N′-(4-fluorophenyl)-1-N-[4-(6-methoxypyrido[3,4-d]pyrimidin-4-yl)oxyphenyl]cyclopropane-1,1-dicarboxamide] |
| 10 to 100 nM | 10 to 100 nM | 10 to 100 nM | > 300 nM | COc1cc2ncnc(Oc3ccc(NC(=O)C4(C(=O)Nc5ccc(F)cc5)CC4)cc3)c2cn1 [Compound 104, 1-N′-(4-fluorophenyl)-1-N-[4-(7-methoxypyrido[4,3-d]pyrimidin-4-yl)oxy-phenyl]cyclopropane-1,1-dicarboxamide] |
| 10 to 100 nM | 10 to 100 nM | 10 to 100 nM | 100 to 300 nM | COc1cc2ncnc(Oc3ccc(NC(=O)C4(C(=O)Nc5ccc(F)cc5)CC4)cc3)c2cc1C(=O)NC1COC1 [Compound 115, 1-N′-(4-fluorophenyl)-1-N-[4-[7-methoxy-6-(oxetan-3-ylcarbamoyl)quinazolin-4-yl]oxyphenyl]cyclopropane-1,1-dicarboxamide] |
| 10 to 100 nM | 10 to 100 nM | 10 to 100 nM | 100 to 300 nM | COc1cc2ncnc(Oc3ccc(NC(=O)C4(C(=O)Nc5ccc(F)cc5)CC4)cc3)c2cc1C(=O)NC1CC1 [Compound 116, 1-N-[4-[6-(cyclopropylcarbamoyl)-7-methoxyquinazolin-4-yl]oxyphenyl]-1-N′-(4-fluorophenyl)cyclopropane-1,1-dicarboxamide] |
| 10 to 100 nM | ≤ 10 nM | 10 to 100 nM | 100 to 300 nM | COc1cc2ncnc(Oc3ccc(NC(=O)C4(C(=O)Nc5ccc(F)cc5)CC4)cc3)c2cc1C(N)=O [Compound 117, 1-N-[4-(6-carbamoyl-7-methoxyquinazolin-4-yl)oxyphenyl]-1-N′-(4-fluorophenyl)cyclopropane-1,1-dicarboxamide] |
| 10 to 100 nM | ≤ 10 nM | 10 to 100 nM | 100 to 300 nM | COc1cc2ncnc(Oc3ccc(NC(=O)C4(C(=O)Nc5ccc(F)cc5)CC4)cc3)c2cc1C(=O)NCCN1CCCC1 [Compound 118, 1-N′-(4-fluorophenyl)-1-N-[4-[7-methoxy-6-(2-pyrrolidin-1-ylethyl-carbamoyl)quinazolin-4-yl]oxyphenyl]cyclopropane-1,1-dicarboxamide] |
| 10 to 100 nM | 10 to 100 nM | 100 to 1000 nM | > 300 nM | COc1cc2ncnc(Oc3ccc(NC(=O)C4(C(=O)Nc5ccc(F)cc5)CC4)cc3)c2cc1C(=O)NC[C@H]1CCCN1C(=O)OC(C)(C)C [Compound 119, tert-butyl (2R)-2-[[[4-[4-[[1-[(4-fluoro-phenyl)carbamoyl]cyclo-propane-carbonyl]amino]phenoxy]-7-methoxyquinazoline-6-carbonyl]amino]methyl]pyr-rolidine-1-carboxylate] |
| 10 to 100 nM | 10 to 100 nM | 100 to 1000 nM | > 300 nM | COc1cc2ncnc(Oc3ccc(NC(=O)C4(C(=O)Nc5ccc(F)cc5)CC4)cc3)c2cc1C(=O)NC[C@@H]1CCCN1C(=O)OC(C)(C)C [Compound 120, tert-butyl (2S)-2-[[[4-[4-[[1-[(4-fluoro-phenyl)carbamoyl]cyclo-propane-carbonyl]amino]phenoxy]-7-methoxyquinazoline-6-carbonyl]amino]methyl]pyr-rolidine-1-carboxylate] |
| ≤ 10 nM | ≤ 10 nM | ≤ 10 nM | 100 to 300 nM | COc1cc2ncnc(Oc3ccc(NC(=O)C4(C(=O)Nc5ccc(F)cc5)CC4)cc3)c2cc1C(=O)NC[C@H]1CCCN1 [Compound 121, 1-N′-(4-fluorophenyl)-1-N-[4-[7-methoxy-6-[[(2R)-pyrrolidin-2-yl]methyl-carbamoyl]quinazolin-4-yl]oxyphenyl]cyclopropane-1,1-dicarboxamide] |
| ≤ 10 nM | ≤ 10 nM | 10 to 100 nM | 100 to 300 nM | COc1cc2ncnc(Oc3ccc(NC(=O)C4(C(=O)Nc5ccc(F)cc5)CC4)cc3)c2cc1C(=O)NC[C@@H]1CCCN1 [Compound 122, 1-N′-(4-fluorophenyl)-1-N-[4-[7-methoxy-6-[[(2S)-pyrrolidin-2-yl]methyl-carbamoyl]quinazolin-4-yl]oxyphenyl]cyclopropane-1,1-dicarboxamide] |
| ≤ 10 nM | ≤ 10 nM | ≤ 10 nM | 10 to 100 nM | COc1cc2nccc(Oc3ccc(NC(=O)C4(C(=O)Nc5ccc(F)cc5)CC4)cc3)c2nc1OC [Compound 139, 1-N-[4-[(6,7-dimethoxy-1,5-naphthyridin-4-yl)oxy]phenyl]-1-N′-(4-fluorophenyl)cyclo-propane-1,1-dicarboxamide] |
